Measurements published in ChEMBL document CHEMBL1799987, “In vivo and in vitro SAR of tetracyclic MAPKAP-K2 (MK2) inhibitors. Part II” (Bioorg Med Chem Lett, 2010).
Converted amounts (≈) assume the structure as drawn.

Experiments:
[1] = Thermodynamic solubility of the compound at pH 6.8; type: physicochemical; details: buffer, read-out: Therm_solubility
Plasma = assay: Plasma concentration in OF1 mouse at 100 mg/kg, po; type: ADME, organism-based; design: dose 100 mg/kg, route oral; details: in vivo
PBMC = assay: cells; details: Homo sapiens
Mus musculus = organism: Mus musculus; assay: animal or person; details: OF1, po, 1 h, read-out: INH
[2] = target: T1, MAP kinase-activated protein kinase 2 (Homo sapiens, UniProt P49137)
T1 sequence (P49137 whole entry): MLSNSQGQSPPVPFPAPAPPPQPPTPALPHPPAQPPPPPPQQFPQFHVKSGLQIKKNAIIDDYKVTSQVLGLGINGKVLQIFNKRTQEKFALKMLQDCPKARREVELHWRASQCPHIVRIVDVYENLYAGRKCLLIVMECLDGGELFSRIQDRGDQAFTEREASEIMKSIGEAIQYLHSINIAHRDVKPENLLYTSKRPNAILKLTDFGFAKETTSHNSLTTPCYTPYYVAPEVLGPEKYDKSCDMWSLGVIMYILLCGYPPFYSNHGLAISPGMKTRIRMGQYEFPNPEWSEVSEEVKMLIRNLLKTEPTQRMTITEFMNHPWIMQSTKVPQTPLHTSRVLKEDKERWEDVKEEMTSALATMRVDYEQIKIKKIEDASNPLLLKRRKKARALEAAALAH

[3] = target: T1, MAP kinase-activated protein kinase 2; remark: listed apart in the source

Compound | solubility thermodynamic [1] [µM] | concentration (Plasma) [nM] | IC50 [2] [nM] | IC50 [3] [nM] | IC50 (PBMC) [nM] | inhibition in vivo at 100 mg/kg (Mus musculus) [%]
COCCOc1cncc(-c2ncc3c(n2)-c2[nH]c4c(c2CC3)C(=O)NCC42CN(C)C2)c1 |  |  |  |  | 1500 | 
COc1ccc(-c2cc3c(cn2)CCc2c-3[nH]c3c2C(=O)NCC32CC2)cc1 | < 4 | 600 |  |  | 1700 | 16
O=C1NCC2(CNC2)c2oc3c(c21)CCc1cnc(-c2cccc(F)c2)cc1-3 | 51 (≈ 19.1 µg/mL) |  |  |  | 2500 | 
O=C1NCC2(CC2)c2[nH]c3c(c21)CCc1cnc(-c2ccc(F)nc2)cc1-3 | < 4 | 1900 |  |  | 700 | 30
O=C1NC2(CC2)Cc2[nH]c3c(c21)CCc1cnc(-c2ccccc2F)cc1-3 | 10 (≈ 3.59 µg/mL) |  |  |  | 900 | 
CN1CC2(CNC(=O)c3c2[nH]c2c3CCc3cnc(-c4cccc(F)c4)nc3-2)C1 |  |  |  |  | 500 | 
CN1CC2(CNC(=O)c3c2[nH]c2c3CCc3cnc(-c4ccc(OCCN5CCOCC5)cc4)cc3-2)C1 |  |  |  |  | 600 | 
O=C1NC2(CC2)Cc2[nH]c3c(c21)CCc1cnc(-c2ccccc2F)nc1-3 | 8 (≈ 2.88 µg/mL) |  |  |  | 2300 | 
COCCOc1cncc(-c2cc3c(cn2)CCc2c-3[nH]c3c2C(=O)NCC3)c1 | 8 (≈ 3.12 µg/mL) |  |  |  | 400 | 
COCCCOc1cncc(-c2cc3c(cn2)CCc2c-3[nH]c3c2C(=O)NCC32CN(C)C2)c1 |  |  |  |  | 700 | 
COCCOc1cncc(-c2cc3c(ccc4c5c([nH]c43)CCNC5=O)cn2)c1 | < 4 |  | 10 | 1500 | 300 | 

Further lines, with some results ahead:

solubility thermodynamic [1] [µM] | concentration (Plasma) [nM] | IC50 [2] [nM] | IC50 [3] [nM] | Compound | IC50 (PBMC) [nM] | inhibition in vivo at 100 mg/kg (Mus musculus) [%]
5 (≈ 1.8 µg/mL) | 15000 |  |  | O=C1NC2(CC2)Cc2[nH]c3c(c21)CCc1cnc(-c2cccc(F)c2)cc1-3 | 800 | 55
173 (≈ 67.5 µg/mL) |  |  |  | CN1CC2(CNC(=O)c3c2[nH]c2c3CCc3cnc(-c4ccc(F)nc4)nc3-2)C1 | 700 | 
373 (≈ 145 µg/mL) |  |  |  | CN1CC2(CNC(=O)c3c2[nH]c2c3CCc3cnc(-c4ccccc4F)nc3-2)C1 | 1600 | 
> 1000 |  |  |  | CN1CCC2(CC1)CNC(=O)c1c2[nH]c2c1CCc1cnc(-c3ccccc3F)cc1-2 | 200 | 
10 (≈ 3.88 µg/mL) | 1000 |  |  | CN1CC2(CNC(=O)c3c2[nH]c2c3CCc3cnc(-c4cccc(F)c4)cc3-2)C1 | 200 | 0
< 4 |  |  |  | O=C1NCCc2[nH]c3c(c21)CCc1cnc(-c2cccc(F)c2)cc1-3 | 500 | 
40 (≈ 16 µg/mL) | 100 |  |  | COc1ccc(-c2cc3c(cn2)CCc2c-3[nH]c3c2C(=O)NCC32CN(C)C2)cc1 | 60 | 0
21 (≈ 8.49 µg/mL) |  |  |  | COCCOc1cncc(-c2cc3c(cn2)CCCc2c-3[nH]c3c2C(=O)NCC3)c1 | 1100 | 
41 (≈ 16.5 µg/mL) |  |  |  | CN1CC2(CNC(=O)c3c4c(n(C)c32)-c2cc(-c3ccccc3F)ncc2CC4)C1 | 1100 | 
11 (≈ 3.67 µg/mL) |  |  |  | O=C1NCCc2[nH]c3c(c21)CCc1cnc(-c2ccccc2F)cc1-3 | 1500 | 
< 4 |  |  |  | O=C1NCC2(CC2)c2[nH]c3c(c21)CCc1cnc(-c2cccc(F)c2)cc1-3 | 900 | 
950 (≈ 382 µg/mL) |  |  |  | CCN1CC2(CNC(=O)c3c2[nH]c2c3CCc3cnc(-c4ccccc4F)cc3-2)C1 | 700 | 
